This note sets out measurements from patent publication US9272013B2, “Methods for treating combined radiation and thermal injury” (University of Southern California, priority 2010, dated 2016).

Holding throughout (format): in vivo
Assay [1] has as its system Guinea Pig Model of CRBI (200 cGy TBI combined with 18 mm burn injuries). In words: Proliferating cells at the edge of the burn (immunohistochemical staining, MIB-1) in guinea pig CRBI model. The note with it: topical, day 14, 200 cGy TBI + 18 mm burns. As to the method: (§1) In a subsequent study, 200 cGy TBI was combined with 18 mm burn injuries in a NorLeu^3-A(1-7) dose-response study. On the day of thermal injury and daily through day 14, various concentrations of NorLeu^3-A(1-7) (0-300 μg/day) were applied to the site of thermal injury (FIG. 3).
For these studies, male Hartley guinea pigs weighing approximately 500 grams were purchased from Charles Rivers Laboratory (Charles Rivers, Mass.). The guinea pigs were housed in a 12:12 hour, light:dark, cycle in the USC Vivaria. The animals received 200 cGy TBI using a Cesuim 137 irradiator. One to two hours thereafter, the guinea pigs received a thermal injury. […]
On day 14 after thermal injury, the guinea pigs was euthanized, the burned areas will be excised en bloc. […] Healing was measured by the number of proliferating cells at the injury site. […]
With an Olympus Vanox-S AH-2 dissecting microscope and a magnification power of 100×, each section of the biopsy specimen was separated into either areas on the burn edge or the actual burn areas. […] In each section four to six consecutive medium-power fields (mpf, 100×) were evaluated. […] All stained cells located within the hair follicles of the biopsy sections were counted. […] Each field was then determined to be either a section on the edge of the burn or a part of the burn area itself. […]

The test system of assay [2] is mouse model of CRBI (10 sec scald at 70 C following 600 cGy TBI). In words: Apoptosis in dermal tissue by TUNEL assay in mouse thermal injury / CRBI model. The note with it: daily 100 ul per wound at 1 mg/ml, day 7. As to the method:
Mice received thermal injury only received a 7% total body surface area scald at 70 C for 10 seconds (under ketamine/xylazine anesthesia). Mice that received the combined injury received total body irradiation with a cesium irradiator at a dose of 6 Gy and 2 hours later received the same scald injury. For the data presented, the treatments were started immediately after the scald injury and the wound were bandaged with Tegaderm. Treatment was daily with 100 ul give per wound at a concentration of 1 mg/ml. The animals were euthanized on day 7. Apoptosis in the dermal tissue was measured by TUNEL assay. NorLeu3-A(1-7) provides additional systems to mitigate delayed wound healing with the involvement of radiation.

Assay [3] concerns Guinea Pig Model of CRBI (200 cGy TBI combined with 18 mm burn injuries). In words: NorLeu^3-A(1-7) dose-response study, survival in guinea pig model of CRBI. The note with it: 1 μg/wound/day and above, applied to site of thermal injury daily through day 14; 200 cGy TBI + 18 mm burns. As to the method: as §1
(§2) For these studies, male Hartley guinea pigs weighing approximately 500 grams were purchased from Charles Rivers Laboratory (Charles Rivers, Mass.). The guinea pigs were housed in a 12:12 hour, light:dark, cycle in the USC Vivaria. The animals received 200 cGy TBI using a Cesuim 137 irradiator. One to two hours thereafter, the guinea pigs received a thermal injury. The thermal injuries were produced and post-operative care performed as described in Rodgers et al., 1997a,b, 2001. Briefly, after anesthesia, two burns were produced on each guinea pig with an 18 mm diameter solid brass rod, which was warmed in a 75° C. water bath. One end of the brass rod was placed on the back of the guinea pig for 50 seconds.
Each burn was treated with 2% HEC (vehicle for topical drug application) with and without NorLeu^3-A(1-7) in 0.05 mol/L phosphate buffer, pH 6.5, and was individually dressed. Treatment was started at various times after TBI and thermal injury as indicated below.

The test system of assay [4] is Guinea Pig Model of CRBI (200 cGy TBI and thermal injury 2 hours later). In words: Time point at which treatment can be initiated, survival in guinea pig CRBI model. The note with it: 10 or 100 μg/daily. As to the method: A second study was conducted in this model to assess the length of time that treatment can be delayed and still reduce mortality. In this study, the guinea pigs underwent 200 cGy TBI and thermal injury 2 hours later. Treatment with placebo was started on day 0. Treatment with 10 or 100 μg/daily NorLeu^3-A(1-7) was initiated on day 0, 1, 2, 3 or 4. When treatment was started at days 0, 1, 2, or 3 survival was increased to approximately 40-60% versus 14% in the placebo-treated animals (FIG. 6-9).
as §2
Each burn was treated with 2% HEC (vehicle for topical drug application) with and without NorLeu^3-A(1-7) in 0.05 mol/L phosphate buffer, pH 6.5, and was individually dressed. […]

Entries after “also recorded” stand apart in the source; their conditions may differ. Where no end group is shown, it is not given here. [ ]: non-standard residue; d: D form. Nle = CCCC[C@H](N)C(=O)O

Regarding “Asp-Arg-Nle-Tyr-Ile-His-Pro (DR[Nle]YIHP) [NorLeu^3-A(1-7)]”, the “number of proliferating cells in the hair follicle bulge at the edge of the wound” value in assay [1] (all doses (except 3 μg/wound/day)) is “increases proliferating cells; also recorded: increased the number of proliferating cells”. Besides, the “number of (proliferating) cells in the basal keratinocyte layer at the edge of the burn” value in assay [1] (doses of 10 μg/daily and above) is given as “increases proliferating cells; also recorded: increase in the number of cells”. In addition, in assay [2] (mouse CRBI: 10 sec scald at 70 C following 600 cGy TBI), the “apoptosis in the dermis and subdermis of thermal injuries” value was “reduces apoptosis”. The “apoptosis at the site of thermal injury alone” value in assay [2] (mouse thermal injury only (no TBI): 7% TBSA scald at 70 C for 10 seconds) is reported as “not at the site of thermal injury alone”. Besides, the “mortality associated with combined injury” value in assay [3] is on record as “reduced mortality”. Besides, the “effectiveness (survival) with delayed treatment” value in assay [4] (initiation of treatment delayed until day 4) is reported as “effectiveness was reduced”. For the same substance, the survival in assay [4] (treatment started at days 0, 1, 2, or 3 after CRBI, versus 14% in placebo-treated animals) is 40-60%.
